What was measured:
Type in all cases: cell-based, human
Bel7402 = test: MTT antiproliferative assay, Bel7402 cells; settings: Homo sapiens, Bel-7402; MTT, 48 h, means ± SD, n = 3
Source text: (§1) Human gastric cancer (AGS), human differentiation of advanced gastric cancer (MGC803), human colorectal cancer (HCT116), human lung cancer (A549), human hepatocellular carcinoma (Bel7402) and human cervical cancer (HeLa) cell lines were obtained from the State Key Laboratory of Natural Resources and Functional Molecules of the Changbai Mountain (Yanbian University) and maintained in Dulbecco’s modified Eagle’s medium and RPMI Media 1640 (RPMI1640), supplemented with 10% foetal bovine serum 100 IU/ml penicillin, […] and 2 mmol/l L-glutamine (Sigma) at 37 °7 in a humidified atmosphere containing 5% CO2.
(§2) All six human cancer cell lines and normal L02 cells were seeded in 96-well plates at the appropriate densities to ensure exponential growth throughout the experimental period (9 × 10^3 cells per well) and then allowed to adhere for 24 h. The cells were then treated for 48 h with four serial dilutions (100, 50, 10, and 1 µM) of each compound. 5-Fluorouracil (5-FU) was used as the positive control. After incubation for 48 h, 10 µl MTT solution was added to each well to give a final concentration of 2 mg ml^−1. The plates were then incubated for further 4 h. After incubation, the MTT solution was removed and 150 µl DMSO was added to each well to solubilise the formed product. To ensure complete solubilisation, the plates were shaken vigorously for 10 min at room temperature. The optometric density (OD) was read on a microplate reader (ELx800, BioTek, Highland Park, Winooski, VT) at a wavelength of 492 nm and the data were subsequently analysed. The percentage of cell growth inhibition was calculated from the following equation: inhibitory rate (%) = [1–(ODtreated–ODblank)/(ODcontrol–ODblank)] × 100.
(§3) The MTT assay was performed using a standard protocol.

A549 = test: MTT antiproliferative assay, A549 cells; settings: Homo sapiens, A549; MTT, 48 h, means ± SD, n = 3
Source text: as §1, §2, §3

AGS = test: MTT antiproliferative assay, AGS cells; settings: Homo sapiens, AGS, 48 h, MTT, means ± SD, n = 3
Source text: as §1, §2, §3

MGC803 = test: MTT antiproliferative assay, MGC803 cells; settings: Homo sapiens, MGC-803; MTT, 48 h, means ± SD, n = 3
Source text: as §1, §2, §3

HCT116 = test: MTT antiproliferative assay, HCT116 cells; settings: MTT, 48 h, means ± SD, n = 3
Source text: as §1, §2, §3

Hela = test: MTT antiproliferative assay, HeLa cells; settings: Homo sapiens, HeLa; MTT, 48 h, means ± SD, n = 3
Source text: as §1, §2, §3

| SMILES | IC50 (Bel7402) | IC50 (A549) | IC50 (AGS) | IC50 (MGC803) | IC50 (HCT116; Homo sapiens, HCT-116, 48 h) | IC50 (Hela) | IC50 (HCT116) |
| --- | --- | --- | --- | --- | --- | --- | --- |
| CC1(C)CCC(O)C23COC(O)(C(O)C12)C12C(=O)C(=Cc4cccc(F)c4)C(CCC31)C2O [Compound 2b, (1S,4aR,5S,6S,6aR,9S,11aS,14R,E)-8-(3-fluorobenzylidene)-1,5,6,14-tetrahydroxy-4,4-dimethyldecahydro-1H-6,11b-(epoxymethano)-6a,9-methanocyclohepta[a]n-aphthalen-7(8H)-one] | > 100 µM | 47.4 ± 3.49 µM | 13.9 ± 1.5 µM | 23.6 ± 1.48 µM | 36.6 ± 2.43 µM | > 100 µM |  |
| CC1(C)CCC(O)C23COC(O)(C(O)C12)C12C(=O)C(=Cc4ccc(F)cc4)C(CCC31)C2O [Compound 2c, (1S,4aR,5S,6S,6aR,9S,11aS,14R,E)-8-(4-fluorobenzylidene)-1,5,6,14-tetrahydroxy-4,4-dimethyldecahydro-1H-6,11b-(epoxymethano)-6a,9-methanocyclohepta[a]n-aphthalen-7(8H)-one] | 12.6 ± 1.05 µM | 59.6 ± 4.75 µM | 14.3 ± 2.43 µM | > 100 µM | 10.2 ± 1.12 µM | > 100 µM |  |
| CC1(C)CCC(O)C23COC(O)(C(O)C12)C12C(=O)C(=Cc4cccc(Cl)c4)C(CCC31)C2O [Compound 2d, (1S,4aR,5S,6S,6aR,9S,11aS,14R,E)-8-(3-chlorobenzylidene)-1,5,6,14-tetrahydrox-y-4,4-dimethyldecahydro-1H-6,11b-(epoxymethano)-6a,9-methanocyclohepta[a]-naphthalen-7(8H)-one] | 16.9 ± 1.3 µM | 12.7 ± 1.56 µM | 14.1 ± 1.65 µM | 2.13 ± 0.13 µM | 19.8 ± 3.19 µM | 15.2 ± 1.47 µM |  |
| CC1(C)CC[C@H](O)C23CO[C@](O)([C@@H](O)[C@H]12)[C@]12C(=O)/C(=C/c4ccc(Cl)cc4)[C@H](CC[C@@H]31)[C@H]2O [Compound 2e, (1S,4aR,5S,6S,6aR,9S,11aS,14R,E)-8-(4-chlorobenzylidene)-1,5,6,14-tetrahydroxy-4,4-dimethyldecahydro-1H-6,11b-(epoxymethano)-6a,9-methanocyclohepta[a]-naphthalen-7(8H)-one] | 9.66 ± 1.15 µM | 23.1 ± 3.63 µM | 15.3 ± 1.78 µM | 7.27 ± 0.74 µM | 14 ± 1.94 µM | > 100 µM |  |
| Cc1ccccc1/C=C1/C(=O)[C@]23[C@H](O)[C@H]1CC[C@H]2C12CO[C@]3(O)[C@@H](O)[C@@H]1C(C)(C)CC[C@@H]2O [Compound 2f, (1S,4aR,5S,6S,6aR,9S,11aS,14R,E)-1,5,6,14-tetrahydroxy-4,4-dimethyl-8-(2-methylbenzylidene)decahydro-1H-6,11b-(epoxymethano)-6a,9-methanocyclohepta[a]-naphthalen-7(8H)-one] | > 100 µM | > 100 µM | > 100 µM | 22.8 ± 1.25 µM | 59 ± 3.37 µM | > 100 µM |  |
| Cc1cccc(/C=C2/C(=O)[C@]34[C@H](O)[C@H]2CC[C@H]3C23CO[C@]4(O)[C@@H](O)[C@@H]2C(C)(C)CC[C@@H]3O)c1 [Compound 2g, (1S,4aR,5S,6S,6aR,9S,11aS,14R,E)-1,5,6,14-tetrahydroxy-4,4-dimethyl-8-(3-methylbenzylidene)decahydro-1H-6,11b-(epoxymethano)-6a,9-methanocyclohepta[a]naphthalen-7(8H)-one] | 24.2 ± 2.27 µM | 66.9 ± 5.29 µM | 10.8 ± 2.39 µM | 17.7 ± 1.13 µM | 14.2 ± 1.31 µM | 22.3 ± 1.92 µM |  |
| Cc1ccc(/C=C2/C(=O)[C@]34[C@H](O)[C@H]2CC[C@H]3C23CO[C@]4(O)[C@@H](O)[C@@H]2C(C)(C)CC[C@@H]3O)cc1 [Compound 2h, (1S,4aR,5S,6S,6aR,9S,11aS,14R,E)-1,5,6,14-tetrahydroxy-4,4-dimethyl-8-(4-methylbenzylidene)decahydro-1H-6,11b-(epoxymethano)-6a,9-methanocyclohepta[a]naphthalen-7(8H)-one] | 11.3 ± 0.98 µM | 18 ± 1.49 µM | 5.26 ± 1.09 µM | 27.2 ± 2.38 µM | 10.1 ± 1.39 µM | 28.7 ± 2.13 µM |  |
| COc1cc(/C=C2/C(=O)[C@]34[C@H](O)[C@H]2CC[C@H]3C23CO[C@]4(O)[C@@H](O)[C@@H]2C(C)(C)CC[C@@H]3O)cc(OC)c1OC [Compound 2n, (1S,4aR,5S,6S,6aR,9S,11aS,14R,E)-1,5,6,14-tetrahydroxy-4,4-dimethyl-8-(3,4,5-trimethoxybenzylidene)decahydro-1H-6,11b-(epoxymethano)-6a,9-methanocyclo-hepta[a]naphthalen-7(8H)-one] | 14.6 ± 1.21 µM | 15.8 ± 1.47 µM | 17.3 ± 2.41 µM | 28 ± 1.73 µM | 18.6 ± 1.78 µM | 8.89 ± 0.94 µM |  |
| CC(C)=CCOc1cccc(/C=C2/C(=O)[C@]34[C@H](O)[C@H]2CC[C@H]3C23CO[C@]4(O)[C@@H](O)[C@@H]2C(C)(C)CC[C@@H]3O)c1 [Compound 2q, (1S,4aR,5S,6S,6aR,9S,11aS,14R,E)-1,5,6,14-tetrahydroxy-4,4-dimethyl-8-(3-((3-methylbut-2-en1yl)oxy)benzylidene)decahydro-1H-6,11b-(epoxymethano)-6a,9-methanocyclohepta[a]naphthalen-7(8H)-one] | 8.62 ± 1.12 µM | 4.66 ± 0.3 µM | 3.1 ± 0.41 µM | 9.1 ± 1.72 µM | 7.63 ± 0.81 µM | 5.43 ± 0.85 µM |  |

The next molecules have a lower IC50 (Bel7402) than those just listed; values first:

| IC50 (Bel7402) | IC50 (A549) | IC50 (AGS) | IC50 (MGC803) | IC50 (HCT116; Homo sapiens, HCT-116, 48 h) | IC50 (Hela) | IC50 (HCT116) | SMILES |
| --- | --- | --- | --- | --- | --- | --- | --- |
| 4.97 ± 0.56 µM | > 100 µM | > 100 µM | 9.13 ± 0.82 µM | 47.1 ± 4.32 µM | > 100 µM |  | CC1(C)CCC(O)C23COC(O)(C(O)C12)C12C(=O)C(=Cc4ccccc4)C(CCC31)C2O [Compound 2a, (1S,4aR,5S,6S,6aR,9S,11aS,14R,E)-8-benzylidene-1,5,6,14-tetrahydroxy-4,4-dimethyldecahydro-1H-6,11b-(epoxymethano)-6a,9-methanocyclohepta[a]naphthale-n-7(8H)-one] |
| 3.56 ± 0.52 µM | 7.89 ± 0.99 µM | 2.87 ± 0.58 µM | 10.4 ± 1.29 µM | 5.08 µM | 24.7 ± 2.08 µM | 5.48 ± 0.64 µM | COc1ccccc1/C=C1/C(=O)[C@]23[C@H](O)[C@H]1CC[C@H]2C12CO[C@]3(O)[C@@H](O)[C@@H]1C(C)(C)CC[C@@H]2O [Compound 2j, (1S,4aR,5S,6S,6aR,9S,11aS,14R,E)-1,5,6,14-tetrahydroxy-8-(2-methoxybenzylidene)-4,4-dimethyldecahydro-1H-6,11b-(epoxymethano)-6a,9-methanocyclohepta-[a]naphthalen-7(8H)-one] |
| 4.52 ± 0.46 µM | 16.8 ± 2.51 µM | 2.91 ± 0.42 µM | 2.79 ± 0.38 µM | 2.99 ± 0.32 µM | 68.8 ± 5.32 µM |  | COc1ccc(/C=C2/C(=O)[C@]34[C@H](O)[C@H]2CC[C@H]3C23CO[C@]4(O)[C@@H](O)[C@@H]2C(C)(C)CC[C@@H]3O)cc1 [Compound 2k, (1S,4aR,5S,6S,6aR,9S,11aS,14R,E)-1,5,6,14-tetrahydroxy-8-(4-methoxybenzylidene)-4,4-dimethyldecahydro-1H-6,11b-(epoxymethano)-6a,9-methanocyclohepta-[a]naphthalen-7(8H)-one] |
| 3.15 ± 0.64 µM | 13.6 ± 1.89 µM | 17.6 ± 2.32 µM | 17.7 ± 1.67 µM | 11.1 ± 1.83 µM | 30.7 ± 2.9 µM |  | COc1ccc(/C=C2/C(=O)[C@]34[C@H](O)[C@H]2CC[C@H]3C23CO[C@]4(O)[C@@H](O)[C@@H]2C(C)(C)CC[C@@H]3O)cc1OC [Compound 2m, (1S,4aR,5S,6S,6aR,9S,11aS,14R,E)-8-(3,4-dimethoxybenzylidene)-1,5,6,14-tetrahydroxy-4,4-dimethyldecahydro-1H-6,11b-(epoxymethano)-6a,9-methanocyclohepta[a]naphthalen-7(8H)-one] |
| 6.54 ± 0.94 µM | 15.3 ± 1.31 µM | 10 ± 1.88 µM | 10.9 ± 1.39 µM | 3.09 ± 0.41 µM | 8.21 ± 1.2 µM |  | CCCOc1ccc(/C=C2/C(=O)[C@]34[C@H](O)[C@H]2CC[C@H]3C23CO[C@]4(O)[C@@H](O)[C@@H]2C(C)(C)CC[C@@H]3O)cc1 [Compound 2o, (1S,4aR,5S,6S,6aR,9S,11aS,14R,E)-1,5,6,14-tetrahydroxy-4,4-dimethyl-8-(4-propoxybenzylidene)decahydro-1H-6,11b-(epoxymethano)-6a,9-methanocyclohepta-[a]naphthalen-7(8H)-one] |
